# Test results reported in paper PMC5403950, “Mechanism Underlying the Reversal of Drug Resistance in P-Glycoprotein-Expressing Leukemia Cells by Pinoresinol and the Study of a Derivative” (Frontiers in Pharmacology, 2017).
# What was measured:
# Lucena 1 cells = test: Multidrug resistance reversal assay (MTT) with DOX; format: cell-based, human
# Procedure: (§1) Briefly, 5 × 10^4 Lucena 1 cells per well were seeded in 96-well plates containing RPMI-1640 medium in the presence of DOX alone or in combination with the tested compounds dissolved in ethanol or acetonitrile as appropriate. DOX was added to reach final concentrations of 0.05–431 μM. The compounds were assayed at the highest non-toxic concentration observed in both cell lines (cytotoxicity ≤ 20%, Cytotoxicity (%) = [1-(Optical density treatment-Optical density DMSO)/(Optical density control-Optical density DMSO)] x 100, determined by MTT proliferation assay (Joray et al., [2015]); maximum concentration tested 40 μg mL^−1). Following the primary screening, compounds 14 and 16 (dissolved in ethanol) were tested at serial dilutions. […] Subsequently, the supernatants were removed and replaced with 100 μL DMSO to solubilize the resulting purple formazan crystals produced from metabolically viable cells. Absorbance was measured with an iMark micro-plate reader (Bio-Rad, USA) at 595 nm.
# (§2) The same reversal assay was performed in K562 cells, in order to discard a decrease in the IC50 of DOX due to effects other than P-gp inhibition. The reversal fold (RF) values for the tested compounds, which indicate their capacity to reduce resistance to DOX, were calculated by dividing the IC50 of DOX alone by the IC50 of DOX in the presence of the tested compounds (Xu et al., [2014]).
# K562 cells [1] = test: Multidrug resistance reversal assay (MTT) with DOX, sensitive parental line; format: cell-based, human; conditions: compound at 14 μM
# Procedure: as §1, §2
# K562 cells [2] = test: Doxorubicin intracellular accumulation assay (flow cytometry), K562; format: cell-based, human; conditions: up to the maximum concentration evaluated
# Text: […]. […] Viability controls were included in all the experiments.
# [3] = Cytotoxicity on peripheral blood mononuclear cells (MTT); format: cell-based, human; conditions: human, peripheral blood mononuclear cells (PBMC), PHA 10 μg mL−1, confidence limits in brackets
# Procedure: (§3) The cytotoxicity of 14 and 16 on peripheral blood mononuclear cells (PBMC) was evaluated by MTT assay (Joray et al., [2015]). PBMC were collected from fresh heparinized blood and separated by density gradient centrifugation (Ficoll®) as described by Rennó et al. ([2008]). As the current study required samples from healthy human volunteer donors, ethical approval was provided by the Catholic University of Córdoba Research Ethics Board. Signed informed consents were obtained from donors. […] Absorbance (Abs) and percentage of cytotoxicity were determined as described above and the IC50 values were calculated. The experiment was carried out in two separate stages.
# [4] = test system: peripheral blood mononuclear cells (PBMC); test: as above; format: cell-based, human; conditions: PHA 10 μg mL−1, 48 h, confidence limits in brackets
# Procedure: as §3
# P-gp [5] = molecular target: T1, P-gp (Homo sapiens, UniProt P08183); conditions: Lucena 1; 1 h pre-incubation, 5 μM DOX 1 h
# T1 sequence (P08183 whole entry): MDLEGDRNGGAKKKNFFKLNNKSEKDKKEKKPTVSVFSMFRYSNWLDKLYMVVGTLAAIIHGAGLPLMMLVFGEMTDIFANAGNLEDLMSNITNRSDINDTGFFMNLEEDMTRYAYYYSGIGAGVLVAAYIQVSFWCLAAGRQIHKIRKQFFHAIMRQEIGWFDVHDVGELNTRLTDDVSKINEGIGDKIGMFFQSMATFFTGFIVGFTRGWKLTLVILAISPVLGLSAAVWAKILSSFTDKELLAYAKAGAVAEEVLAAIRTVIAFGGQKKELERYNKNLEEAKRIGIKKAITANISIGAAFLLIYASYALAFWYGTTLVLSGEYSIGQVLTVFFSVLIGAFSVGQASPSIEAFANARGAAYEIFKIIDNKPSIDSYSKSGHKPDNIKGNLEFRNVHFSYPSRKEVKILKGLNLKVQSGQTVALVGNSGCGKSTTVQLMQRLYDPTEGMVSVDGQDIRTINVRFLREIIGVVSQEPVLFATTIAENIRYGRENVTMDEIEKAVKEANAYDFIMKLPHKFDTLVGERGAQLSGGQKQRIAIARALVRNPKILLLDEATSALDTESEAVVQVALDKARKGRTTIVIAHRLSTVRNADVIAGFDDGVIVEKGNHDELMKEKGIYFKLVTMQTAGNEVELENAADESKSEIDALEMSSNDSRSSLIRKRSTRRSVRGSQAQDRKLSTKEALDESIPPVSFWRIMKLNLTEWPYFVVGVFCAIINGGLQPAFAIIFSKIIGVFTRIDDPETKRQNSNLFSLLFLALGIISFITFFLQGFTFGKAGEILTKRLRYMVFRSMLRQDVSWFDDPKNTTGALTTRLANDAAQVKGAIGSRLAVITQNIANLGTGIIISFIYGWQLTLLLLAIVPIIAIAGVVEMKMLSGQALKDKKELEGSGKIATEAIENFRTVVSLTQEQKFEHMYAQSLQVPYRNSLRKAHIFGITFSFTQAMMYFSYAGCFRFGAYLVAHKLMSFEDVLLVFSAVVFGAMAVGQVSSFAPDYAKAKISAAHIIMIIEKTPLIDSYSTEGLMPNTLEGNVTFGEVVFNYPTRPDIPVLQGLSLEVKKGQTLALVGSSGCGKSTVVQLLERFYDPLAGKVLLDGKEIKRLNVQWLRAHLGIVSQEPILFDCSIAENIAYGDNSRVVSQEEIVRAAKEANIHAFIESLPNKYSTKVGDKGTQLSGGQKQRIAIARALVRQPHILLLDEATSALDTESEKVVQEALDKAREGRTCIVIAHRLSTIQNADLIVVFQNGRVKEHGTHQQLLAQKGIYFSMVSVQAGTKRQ
# P-gp [6] = molecular target: T1, P-gp; test: in vitro; conditions: Lucena 1 cells, probe doxorubicin (DOX) 5 μM
structure (smiles),measurement,setting,value
"COc1cc([C@H]2OC[C@]3(OC(C)=O)[C@@H](c4ccc(O)c(OC)c4)OC[C@H]23)ccc1O [Compound 16, 1-acetoxy-(+)-pinoresinol]",Minimum effective concentration (MEC) in the reversal assay (potentiation of DOX toxicity from),"Lucena 1 cells; Lucena 1, DOX",0.11 µM
same,RF Lucena 1,"Lucena 1 cells; compound at 0.11 μM, DOX",1.4
same,RF Lucena 1,"Lucena 1 cells; compound at 14 μM, DOX",22.7
same,Effectiveness of 16 relative to 14 according to the MECs,Lucena 1 cells; reversal and accumulation assays,64 times
same,Effect on DOX activity in K562,K562 cells [1],no potentiation
same,RF K562,K562 cells [1]; DOX,1.05 ± 0.14
same,DOX accumulation in K562,K562 cells [2],no increase in DOX accumulation
same,IC50 at 48 h,[3],103 µM
same,IC50,[4],103 µM
same,Minimum effective concentration (MEC) in the DOX accumulation assay,P-gp [5],0.87 µM
same,activity at 0.87 µM,P-gp [6],62%
same,activity at 14 µM,P-gp [6],141%
